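Each compound was tested at five concentrations against cells in 96-well plates for 48 hours. GI50 marks 50% less growth. At the TGI there is no net growth.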
Experiments:
Assay in all cases: NCI-60 cell line screen, 48 h
[1] = test system: BT-549 breast
[2] = test system: OVCAR-3 ovarian
[3] = test system: MCF7 breast
[4] = test system: U251 CNS
[5] = test system: NCI-H23 lung
[6] = test system: T-47D breast
[7] = test system: OVCAR-8 ovarian
[8] = test system: MALME-3M melanoma
[9] = test system: SK-OV-3 ovarian
[10] = test system: SW-620 colon
[11] = test system: NCI-H522 lung
[12] = test system: RPMI-8226 leukemia
[13] = test system: HT29 colon
[14] = test system: TK-10 renal
[15] = test system: UACC-62 melanoma
[16] = test system: NCI/ADR-RES ovarian
[17] = test system: UACC-257 melanoma
[18] = test system: OVCAR-5 ovarian
[19] = test system: HS 578T breast
[20] = test system: NCI-H460 lung
[21] = test system: SNB-19 CNS
[22] = test system: 786-0 renal
[23] = test system: PC-3 prostate
[24] = test system: UO-31 renal
[25] = test system: A498 renal
[26] = test system: MOLT-4 leukemia
[27] = test system: SR leukemia
[28] = test system: LOX IMVI melanoma
[29] = test system: SF-295 CNS
[30] = test system: MDA-MB-435

With `Cc1cc(C(NC(=O)CCCCCNc2cccc3c2C(=O)N(C2CCC(=O)NC2=O)C3=O)c2cccnc2)c(O)c2ncccc12` (configuration not stated) the TGI [1] was 39.2 nM, the GI50 [2] was 252 nM and the TGI [2] was 15600 nM. For the same compound, the GI50 [3] was 62.5 nM, the TGI [3] was 14000 nM and the GI50 [4] was 641 nM. The TGI [4] was greater than 100000 nM, the GI50 [5] was 1800 nM and the TGI [5] was 43800 nM. It also gave a GI50 [6] of 10.3 nM, a TGI [6] of 5120 nM and a GI50 [7] of less than 16.3 nM. The TGI [7] was 8330 nM, the GI50 [8] was less than 10 nM and the TGI [8] was 22.4 nM. It also gave a GI50 [9] of 222 nM, a TGI [9] of 3920 nM and a GI50 [10] of 21 nM. The TGI [10] was greater than 100000 nM, the GI50 [11] was 639 nM and the GI50 [12] was 1350 nM. The TGI [12] was greater than 100000 nM, the GI50 [13] was 446 nM and the TGI [13] was greater than 100000 nM. The GI50 [14] was 413 nM, the TGI [14] was greater than 100000 nM and the GI50 [15] was 1810 nM. It also gave a TGI [15] of 6350 nM, a GI50 [16] of 13400 nM and a TGI [16] greater than 100000 nM. For the same compound, the GI50 [17] was 2090 nM, the TGI [17] was greater than 27600 nM and the GI50 [18] was 637 nM. It also gave a TGI [18] greater than 100000 nM, a GI50 [19] of 18.4 nM and a TGI [19] of 7090 nM. The GI50 [20] was 1510 nM, the TGI [20] was 28100 nM and the GI50 [21] was 273 nM. It also gave a TGI [21] greater than 100000 nM, a GI50 [22] of 164 nM and a TGI [22] of 14700 nM. It also gave a GI50 [23] of 20.7 nM, a GI50 [24] of 362 nM and a TGI [24] of 34400 nM. The GI50 [25] was 202 nM, the TGI [25] was 6520 nM and the GI50 [26] was less than 10 nM. It also gave a TGI [26] of 156 nM, a GI50 [27] of 433 nM and a TGI [27] greater than 54200 nM. The GI50 [28] was 856 nM, the TGI [28] was 12400 nM and the GI50 [29] was 291 nM. The TGI [29] was 8140 nM, the GI50 [30] was 2350 nM and the TGI [30] was greater than 100000 nM.
